Reference: patent US11964943B2, “3,5-diarylidenyl-n-substituted-piperid-4-one-derived inhibitors of Stat3 pathway activity and uses thereof” (priority 2017, dated 2024)

System: cisplatin-produced DNA interstrand crosslinks
Experiment: Modified single cell gel electrophoresis (comet) assay
Type: cell-based
Description: The following procedure for the modified single-cell gel electrophoresis (comet) assay [Hartley. J. M., et al. Drug-DNA Interact. Protoc. Methods Mol. Biol. 2010, 613, 267] was applied to measure DNA interstrand crosslinking (ICL) induced by platinum drug in DU145 and A549 cells. Exponentially growing cells were treated for 1 h with different concentrations of cisplatin and collected after 0, 9, 24 and 48 h. All procedures were carried out on ice. Cells were diluted to a final concentration of 2.5×10^4 cells/ml and irradiated with X-ray (15 Gy) in order to deliver a fixed number of random DNA strand breaks (except for the untreated unirradiated control). Cells were embedded in 1% agarose on a precoated microscope slide, and each sample was prepared in duplicate. […] Images were captured using an on-line CCD camera and analysed using the Komet Analysis software 4.02 (Andor Technology, Belfast, UK). […] 25 cells were analysed. The tail moment for each image was calculated as the product of the percentage of DNA in the comet tail and the distance between the means of the head and tail distributions (Olive P. L., et al, Radiat Res 122, 86). DNA ICL after drug treatment was expressed as the percentage decrease in tail moment compared with irradiated controls calculated by the formula: % Decrease in tail moment=[1−(TMdi−TMcu/Tci−TMcu)]×100 […]

For `COc1cc(/C=C2\CN(c3ccccc3)C/C(=C\c3cc(OC)c(OC)c(OC)c3)C2=O)cc(OC)c1OC` [IE-8, 3,5-Di(3,4,5-trimethoxybenzylidene)-1-phenylpiperidin-4-one], the “persistence of DNA ICLs in combination treatment” value (DU145, IE-8 pretreatment then cisplatin 1 h) was “up to 48 h” and the “unhooking (repair) of cisplatin-produced DNA ICLs” value (DU145 and A549 cells, IE-8 pretreatment overnight or 1 h before cisplatin) was “impairs the ‘unhooking’ of the cisplatin-produced ICLs”.
